Source: PMC9308172 (Journal of medicinal chemistry, 2017)

Target: M2TMS31N (Influenza A virus, UniProt P0DOF5, S31N)
Format: binding, influenza A (A/Udorn/307/72, S31N mutant)
Details: for binding to M2TMS31N according to ITC (in words): pH 8

SMILES | ΔG [kcal/mol] | binding to M2TMS31N according to ITC (in words)
C1CNC2(C1)C1CC3CC(C1)CC2C3 (centres unmarked) [Compound 6] | -6.68 ± 0.296 | bind weakly
CCCC1(N)C2CC3CC(C2)CC1C3 (centres unmarked) [Compound 5] | – | bind weakly
NC1(C23CC4CC(CC(C4)C2)C3)CCCCC1 [Compound 10, 1-(1-Adamantyl)cyclohexanamine] | -7.029 ± 0.308 | –
NC1(C23CC4CC(CC(C4)C2)C3)CCCC1 [Compound 9] | -6.745 ± 0.229 | –
